From patent US20110104052A1, “METHODS OF SYNTHESIS AND USE OF CHEMOSPHERES” (THE JOHNS HOPKINS UNIVERSITY, priority 2007, published 2011)

Assays:
[1] = test system: tumors growing within the liver; conditions: rabbit model for liver cancer; cited from earlier work
[2] = Loading of doxorubicin into liposome polymer matrices; format: physicochemical; conditions: polymer/lipid:drug ratio approximately at least 50:1, mol/mol
Procedure: The spheres that were subjected to ultrafiltration or column washes were stored for a variable amount of time in a minimal amount of 3 M sucrose, 750 mM Histidine HCl to maintain hydration at 20° C. and 5° C. Following storage the loading efficiency of doxorubicin into the spheres was assessed (table 1). For drug loading a procedure that could easily be implement in the pharmacy was employed. Specifically a water bath or dry heat block was allowed to equilibrate at 58° C. (55°-60° C.). For each 1 mL packed volume of microspheres, 50 mg of lyophilized doxorubicin (for storage lactose and parahydroxybenzoate may be added) in a solution of 8 mL was prepared. This solution was then added to the equilibrated heating source for 10 min. Next a 2 mL concentrated solution of sodium carbonate was injected into the microsphere solution. The 2 mL of microspheres and 8 mL of doxorubicin were then combined creating a solution with pH of 7 (this step should be done within 2 minutes of adding sodium carbonate to the microspheres). The mixture should be shaken vigorously and allowed to sit for at least 10 minutes in the heat block or water bath and then brought to room temperature. After this period the spheres can be stored up to 10 hours at 25° C. and for 7 days at 2° C.-8° C. […]

added doxorubicin that becomes vesicle entrapped as doxorubicin-citrate [2] | SMILES | effect of bolus injection on non-tumor tissue [1]
– | O=C(O)C(=O)CBr [3-bromopyruvate] | damages surrounding liver tissue
greater than 90% | COc1cccc2c1C(=O)c1c(O)c3c(c(O)c1C2=O)C[C@@](O)(C(=O)CO)C[C@@H]3O[C@H]1C[C@H](N)[C@H](O)[C@H](C)O1 [doxorubicin] | –
